From patent publication EP4420661B1, “SMALL MOLECULES TARGETING GLYCOPROTEIN VI AS ANTIPLATELET AGENTS FOR USE IN THE PREVENTION AND/OR TREATMENT OF THROMBOSIS AND ASSOCIATED PATHOLOGIES” (Universidade de Santiago de Compostela, priority 2023, dated 2024)

What was measured:
Type in all cases: in vitro ADME
[1] = plasma protein binding, Rapid Equilibrium Dialysis (RED), human; conditions: 4h at 37°C
Experimental: (§1) Plasma from Seralab was employed in the assay and was carried out by employing Rapid Equilibrium Dialysis (RED) from Thermo Scientific.
(§2) The compounds were dissolved at 5 µM in plasma and added to the corresponding insert of the RED device. Dialysis buffer was added to the corresponding insert of the RED device. Plate was incubated for 4h at 37°C.
(§3) After the incubation period 50 µL aliquots of each chamber were transferred to empty vials. 50 µL of dialysis buffer were added to the plasma samples and 50 µL of plasma were added to the buffer samples. 300 µL of acetonitrile were added to all the samples and centrifuged at 4000 rpm 100 µL aliquots of the supernatants were transferred to a LC analysis plate. Samples were analyzed in a UPLC/MS/MS. Stationary phase: Acquity UPLC® BEHC18 1,7 µm (2.1 mm x 50 mm) (Waters). Gradient: A (H2O + 0.1% Formic acid); B (ACN + 0.1% Formic acid); Flow: 0.6mL/min Table 8: UPLC gradient / Protein binding assay
(§4) The chromatographic equipment employed was an ACQUITY UPLC / Xevo TQD System. Compound concentrations were calculated from the MS peak areas. Table 9: Plasma protein binding of the compounds of formula (I) in rat, mice, dogs and humans / (*) low recovery

[2] = system: Plasma protein; assay: as above; conditions: 5 µM, 4h at 37°C
Experimental: as §1, §2, §3, §4

[3] = metabolic stability, human microsomes
Experimental: Microsomes from Tebu-bio Xenotech were employed in the assay, having a content of 20 mg/ml of protein. The following quantities were added to each well of a 96-well microplate. Table 6: Metabolic stability assay.
Plates were incubated at 37°C and 75 µL samples were taken at 0, 10, 20, 40 and 60 minutes.
Samples were transferred to a microplate and 75 µl Acetonitrile + IS(Rolipram) were added for inactivating the microsomes, and 30 µl of H2O with 0.5% formic acid for improving the chromatographic conditions and kept at 4°C. When all the samples were taken the plate was centrifuged at […] for 30 min at 15°C. Stationary phase: ACQUITY BEH C18 1.7µm 2.1x50mm (Waters) Mobile phase: A: 0.1% formic; B: acetonitrile+0.1% formic acid Gradient: Table 6: UPLC gradient / Metabolic stability assay
Metabolic stability was calculated from the logarithm of the remaining compound at each of the times evaluated.

[4] = plasma protein binding, Rapid Equilibrium Dialysis (RED), rat; conditions: 4h at 37°C
Experimental: as §1, §2, §3, §4

[5] = system: Plasma protein; assay: as above; conditions: 5 µM, 4h at 37°C
Experimental: as §1, §2, §3, §4

With `O=C(Cc1ccc2c(c1)OCCO2)Nc1nc(-c2ccc3c(c2)CCC(=O)N3)cs1` [Compound (If)] the fraction unbound at 4 h, 5 µM [1] was 0.0011, the Unbound fraction [2] was 0.11% and the half-life [3] was 46.9 min. The microsomal CLint [3] was 10.1 µL/min/mg, the “% remanent (*)” value ([3]; (*) sampling time 60 min) was 41.21% and the fraction unbound at 4 h, 5 µM [4] was 0.001. The Unbound fraction [5] was 0.10%.
